Literature values in patent US7858592B2, “Interfering RNAs against the promoter region of P53” (The Board of Regents of the University of Texas System, priority 2007, dated 2010).
Where a name gives a salt, the structure may show the parent alone.

Assays:
[1] = not given; remark: listed apart in the source
[2] = not given; remark: listed apart in the source

## O=NN(CCCl)C(=O)NC1CCCCC1 [Lomustine, 1-(2-chloro-ethyl)-3-cyclohexyl-1 nitrosourea]
15 minutes after intravenous administration
  tissue levels versus plasma levels: comparable to plasma levels

## N[C@H](Cc1ccc(N(CCCl)CCCl)cc1)C(=O)O [medphalan]
Certain animal tumors
  activity relative to the L-isomer: less active

## COc1cccc2c1C(=O)c1c(O)c3c(c(O)c1C2=O)C[C@@](O)(C(=O)CO)C[C@@H]3O[C@H]1C[C@H](N)[C@H](O)[C@H](C)O1 [Doxorubicin, 5,12-Naphthacenedione, (8s-cis)-10-[(3-amino-2,3,6-trideoxy-a-L-lyxo-hexopyranosyl)oxy]-7,8,9,10-tetrahydro-6,8,11-trihydroxy-8-(hydroxyacetyl)-1-methoxy-hydrochloride]
In vivo
  excreted into the urine: a few percent

## CC[C@]1(O)C[C@H]2CN(CCc3c([nH]c4ccccc34)[C@@](C(=O)OC)(c3cc4c(cc3OC)N(C=O)[C@H]3[C@@](O)(C(=O)OC)[C@H](OC(C)=O)[C@]5(CC)C=CCN6CC[C@]43[C@@H]65)C2)C1 [Vincristine]
[1]; in vivo
  toxicity for normal marrow cells and epithelial cells: relatively low toxicity

## CC[C@@]1(O)C(=O)OCc2c1cc1n(c2=O)Cc2cc3ccccc3nc2-1 [Camptothecin]
[2]
  solubility in water: poor water-solubility

## O.O=P1(N(CCCl)CCCl)NCCCO1 (stereo not drawn) [Cyclophosphamide, 2H-1,3,2-Oxazaphosphorin-2-amine, N,N-bis(2-chloroethyl)tetrahydro-, 2-oxide, monohydrate]
[1]; oral and parental routes
  local tolerability: does not cause local vesication, necrosis, phlebitis or even pain
